The values below come from US20250085273A1, “NOVEL RAPID DRUG DISCOVERY FOR SEPSIS AND AGENTS FOR USE AS SEPSIS THERAPY” (priority 2023, published 2025).

Data set [1] deals with 5-dpf zebrafish larvae challenged with P. aeruginosa LPS 60 μg/mL. In kind it is in vivo, Danio rerio. The following applies: compound 10 μM.
Data set [2] deals with larval zebrafish locomotor behavior. Type of data set: in vivo. The settings on record: in vivo. From the text: This assay is a modified version of the larval zebrafish light dark transition assay with an added UV light (wavelength=295 nm) phase to capture any compound specific neurological effects to UV light. (Basnet et al., 2019, Kokel et al., 2013, Peng et al., 2016). The light period assesses deviations from normal locomotor behavior while the rapid transition to dark provides a measure of stress response by identifying any deviations from the normal heightened locomotor activity caused by the transition to dark. The neurobehavioral assay used a custom trial control script created by Noldus Ethovision XT 15, and it was executed in a Noldus DanioVision system. Zebrafish larvae in microplates were allowed to habituate in the DanioVision system for 5 minutes under white light conditions prior to the start of the test. The neurobehavioral assay consisted of three phases: a 3-minute light phase (white light), a 3-minute dark phase (no light) and a 5 second UV phase (UV light only). The Danio Vision system captured larval zebrafish movement throughout this assay at 30 frames per second.
LC50s for the LPS tests were determined using the Trimmed Spearmen-Karber method (Hamilton et al., 1977). The tail edema and mortality data from the initial and confirmatory drug testing was analyzed using GraphPad Prism 9 using Fisher's Exact Test. Each drug treatment group was compared pairwise with the on-board positive control group on each test plate. Statistical significance was determined with values of p≤0.05. Neurological behavioral testing data was analyzed by Ethovision software that produced an activity analysis profile per frame for each well of the 96 well plates. Any dead embryos were removed from the data set, and the remaining data set was imported into Excel. The offset function in Excel was used to average the percentage of pixel change per 0.1 s for each plate. […] The behavioral data was then statistically analyzed by drug per phase using a 2 tailed t-test to determine statistical significance p≤0.01.

Data set [3] deals with 5-dpf zebrafish challenged with K. Pneumoniae LPS (45 μg/mL). The data set can be described thus: Challenge with K. Pneumoniae LPS (45 μg/mL), 5-dpf zebrafish. In kind it is in vivo, Danio rerio. On the procedure:
These tests followed the same methods described in the 5-dpf zebrafish confirmatory testing, but K. Pneumoniae LPS (45 μg/mL final in well concentration) was used instead of P. aeruginosa LPS.

A further data set deals with 5-HT2B (Homo sapiens, UniProt P41595). The settings on record: read-out: affinity (Ki) 5-HT2B; cited from earlier work.
The target of another data set is T1, α1B (Homo sapiens, UniProt P35368).
T1 sequence (P35368 1-520): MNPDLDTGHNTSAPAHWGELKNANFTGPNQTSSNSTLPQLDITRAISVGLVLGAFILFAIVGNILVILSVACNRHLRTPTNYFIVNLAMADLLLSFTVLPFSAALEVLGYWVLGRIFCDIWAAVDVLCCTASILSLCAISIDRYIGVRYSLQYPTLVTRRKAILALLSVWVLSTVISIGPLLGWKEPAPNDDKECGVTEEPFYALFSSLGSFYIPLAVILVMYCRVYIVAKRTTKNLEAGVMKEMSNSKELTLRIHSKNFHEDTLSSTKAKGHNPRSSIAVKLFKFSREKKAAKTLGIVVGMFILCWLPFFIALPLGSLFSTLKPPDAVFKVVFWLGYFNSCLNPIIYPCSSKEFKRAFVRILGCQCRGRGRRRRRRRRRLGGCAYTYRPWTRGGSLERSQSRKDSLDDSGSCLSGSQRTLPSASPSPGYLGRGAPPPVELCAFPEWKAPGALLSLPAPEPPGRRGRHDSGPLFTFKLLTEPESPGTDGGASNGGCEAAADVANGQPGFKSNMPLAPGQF
The following applies: read-out: affinity (Ki) α1B; cited from earlier work.

A further data set deals with T2, α1D (Homo sapiens, UniProt P25100).
T2 sequence (P25100 1-572): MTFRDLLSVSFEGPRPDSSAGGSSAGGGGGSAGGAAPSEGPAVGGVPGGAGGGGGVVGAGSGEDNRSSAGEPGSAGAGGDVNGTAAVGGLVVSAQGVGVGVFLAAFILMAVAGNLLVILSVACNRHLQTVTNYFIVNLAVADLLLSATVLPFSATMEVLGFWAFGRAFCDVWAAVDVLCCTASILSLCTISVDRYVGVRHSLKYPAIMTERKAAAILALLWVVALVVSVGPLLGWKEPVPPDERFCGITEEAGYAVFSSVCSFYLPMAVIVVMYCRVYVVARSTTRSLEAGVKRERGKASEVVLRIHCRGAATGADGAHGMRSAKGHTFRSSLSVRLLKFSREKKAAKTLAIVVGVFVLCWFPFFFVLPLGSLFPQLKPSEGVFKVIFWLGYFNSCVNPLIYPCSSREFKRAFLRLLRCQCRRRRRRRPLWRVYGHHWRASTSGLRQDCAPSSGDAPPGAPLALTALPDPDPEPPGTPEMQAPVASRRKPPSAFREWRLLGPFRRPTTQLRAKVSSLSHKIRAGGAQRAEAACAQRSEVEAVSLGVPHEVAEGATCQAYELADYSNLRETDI
The following applies: read-out: affinity (Ki) α1D; cited from earlier work.

In the next data set the target is T3, muscarinic M1 receptor (Homo sapiens, UniProt P11229).
T3 sequence (P11229 1-460): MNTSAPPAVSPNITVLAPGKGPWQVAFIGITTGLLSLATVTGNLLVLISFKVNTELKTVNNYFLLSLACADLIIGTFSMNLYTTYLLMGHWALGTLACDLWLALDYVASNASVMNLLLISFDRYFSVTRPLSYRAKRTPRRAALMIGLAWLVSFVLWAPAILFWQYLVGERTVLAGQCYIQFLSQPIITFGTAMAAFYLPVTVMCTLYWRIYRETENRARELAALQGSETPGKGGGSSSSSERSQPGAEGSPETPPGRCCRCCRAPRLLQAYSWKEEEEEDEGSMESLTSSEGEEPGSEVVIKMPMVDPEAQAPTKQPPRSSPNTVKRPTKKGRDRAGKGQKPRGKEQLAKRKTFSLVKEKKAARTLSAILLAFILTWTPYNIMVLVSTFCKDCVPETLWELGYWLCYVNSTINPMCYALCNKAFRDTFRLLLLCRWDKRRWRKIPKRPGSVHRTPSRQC
The settings on record: at 10 μM; cited from earlier work.

Where two headings read alike, the source gives them in different places.

The term Ki denotes a dissociation constant, usually derived from enzyme kinetics or from competition with a known ligand.

5-HT2B, sequence (P41595 whole entry, species assumed): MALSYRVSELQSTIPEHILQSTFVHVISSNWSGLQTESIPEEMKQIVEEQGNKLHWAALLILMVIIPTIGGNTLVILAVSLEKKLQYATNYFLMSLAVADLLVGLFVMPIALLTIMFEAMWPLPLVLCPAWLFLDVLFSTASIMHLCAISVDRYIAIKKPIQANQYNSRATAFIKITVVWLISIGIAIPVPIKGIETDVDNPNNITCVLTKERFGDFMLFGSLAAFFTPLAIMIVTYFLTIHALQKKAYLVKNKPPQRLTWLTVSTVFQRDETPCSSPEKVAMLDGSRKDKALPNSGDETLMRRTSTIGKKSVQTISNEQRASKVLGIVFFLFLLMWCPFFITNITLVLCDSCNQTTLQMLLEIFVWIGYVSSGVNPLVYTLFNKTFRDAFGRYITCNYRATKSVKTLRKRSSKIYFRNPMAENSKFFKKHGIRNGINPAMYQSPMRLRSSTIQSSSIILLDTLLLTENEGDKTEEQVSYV

`O=c1ccc2ccc(OCCCCN3CCN(c4cccc5sccc45)CC3)cc2[nH]1` [Compound 45, Brexpiprazole]: the “5 dpf Embryos Percent Rescue (Mort + Tail Edema)” value in data set [1] (5-dpf larvae) stood at 94%. Besides, the “rescue of tail edema and mortality (sepsis rescue rate) at 5-dpf” value stood at 94% in data set [1] and 100% in data set [1] (listed as brexpiprazole). Besides, the “activity during the dark phase” value in data set [2] was “not significant”. Moreover, in data set [3], the “rescue of tail edema and mortality” value is reported as 100%. The Ki was 1.9 nM on 5-HT2B, 0.17 nM on α1B and 2.6 nM at α1D. The “inhibition, muscarinic M1 receptor” value on muscarinic M1 receptor is recorded as 67%.
